Source: patent US10287267B2, “Isoquinolin-3-yl carboxamides and preparation and use thereof” (Samumed, LLC, priority 2016, dated 2019)
Like-named read-outs stand apart in the source and are kept apart here.

Tests used:
recombinant GSK3β kinase = recombinant GSK3β kinase (Homo sapiens (Human), UniProt P49841); experiment: GSK3β kinase assay (Ser/Thr 09 peptide Z-lyte FRET); format: biochemical; settings: 46 μM ATP, 1 h room temperature;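 also: kinase activity read as coumarin to fluorescein emission ratio, 11-point threefold dilutions from 10 µM to 0.0003 µM in duplicate, unphosphorylated and phosphorylated peptide as 0% and 100% controls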
Sequence of recombinant GSK3β kinase (P49841 whole entry): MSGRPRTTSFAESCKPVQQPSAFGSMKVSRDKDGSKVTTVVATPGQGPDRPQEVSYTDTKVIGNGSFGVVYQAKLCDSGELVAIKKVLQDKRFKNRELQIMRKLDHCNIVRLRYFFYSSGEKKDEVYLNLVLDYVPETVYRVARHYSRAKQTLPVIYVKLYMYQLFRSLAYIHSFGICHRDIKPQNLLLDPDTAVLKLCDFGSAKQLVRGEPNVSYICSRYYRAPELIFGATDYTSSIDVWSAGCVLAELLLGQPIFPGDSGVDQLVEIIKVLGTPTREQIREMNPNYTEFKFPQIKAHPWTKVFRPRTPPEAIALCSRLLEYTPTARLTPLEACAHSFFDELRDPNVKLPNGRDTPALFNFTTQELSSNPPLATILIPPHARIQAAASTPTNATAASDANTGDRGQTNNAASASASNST

IL-6 [1] = experiment: Secreted cytokines in lipopolysaccharide-stimulated BV-2 mouse microglial cells: IL-6; format: cell-based; settings: BV-2 cells, compounds overnight, LPS 250 ng/mL 5 h
Description: (§1) Representative compounds were screened using the cell-based assay procedure for secreted cytokines in a Lipopolysaccharide-stimulated mouse glial cell line described below.
(§2) BV-2 cells (mouse microglial cells) were cultured in 1:1 DMEM medium supplemented with 10% FBS, and 1% penicillin/streptomycin.
(§3) BV-2 cells are plated at 35,000 cells/well in a volume of 100 ul for at least 4 hours before compounds are added. DMSO-resuspended compounds were first dispensed in a 96 well plate and serial diluted from 10 μM to 4.6 nM final concentration in medium. Compounds were added to cells overnight. Two hundred fifty ng per milliliter of lipopolysaccharide (Escherichia coli O55:B5, SIGMA) was added for 5 h. Supernatant is removed and saved for further cytokine detection. The original plates with seeded cells were tested for cytotoxicity by measure of adenosine triphosphate (ATP) release by adding CellTiter-Glo® diluted 1:4 in distilled water (G7573, Promega) and transferring lysed cells to a completely black 96-well plate to be read with the Cytation3. Supernatant was then diluted 1:2 with a diluent from V-PLEX cytokine Kit and directly tested for the secreted cytokines TNFα, IL-6 and KC-GRO using electrochemiluminescence (Meso Scale Discovery). The standard curve for each cytokine was used to convert the electrochemiluminescent signal into pg of protein per mL.

[2] = system: Tau phosphorylation at Ser396 (pSer396); experiment: Tau phosphorylation assay (pSer396 ELISA / western blot) in SH-SY5Y cells; format: cell-based, human; settings: read-out: pSer396 Tau EC50;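 also: EC50 for reduction of Tau pSer396 in lysed cells, measured by colorimetric ELISA or chemiluminescent western blot, both using the same pSer396 antibody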
[3] = molecular target: recombinant DYRK1A kinase (Homo sapiens (Human), UniProt Q13627); experiment: DYRK1A kinase assay (Ser/Thr 18 peptide Z-lyte FRET); format: biochemical; settings: 30 μM ATP, 1 h room temperature;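 also: Read-out is the coumarin to fluorescein emission ratio, referenced to unphosphorylated (0%) and phosphorylated (100%) Ser/Thr 18 peptide controls, values from dose-response curves by non-linear regression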
IL-6 [4] = experiment: IL-6 inhibition in LPS-stimulated human peripheral blood mononuclear cells (HTRF); format: cell-based; settings: for EC50: Table 9, huPBMCs, LPS 50 ng/mL, 22 hours, dose-response starting from 10 μM;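 as to all read-outs here: IL-6 detected by HTRF with an XL665- and Cryptate-labelled anti-IL-6 antibody pair, samples run in duplicate, EC50 obtained from a four-parameter Levenberg-Marquardt curve fit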
Description: After 22 hour incubation, a mixture of anti-IL6 XL665 and anti-IL-6 Cryptate diluted in reconstitution buffer (Catalog #62IL6PEC, Cisbio Inc., Bedford, Mass.) was added to each well. […] All samples were processed in duplicate. […] EC50 was determined using software generated by Dotmatics Limited (Windhill Bishops Stortford Herts, UK) using the Levenberg-Marquardt 4 parameter fitting procedure with finite different gradients.

[5] = system: Wnt pathway (Sp5-Luc reporter, TCF/LEF binding sites) in SW480 colon carcinoma cells; experiment: Screening assay for Wnt activity: Sp5-Luc reporter gene assay; format: cell-based, human; settings: Sp5-Luc reporter, SW480 cells, 36 to 48 hours;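 also: firefly luciferase luminescence read in stably transduced SW480 cells carrying the Sp5 promoter reporter with eight TCF/LEF sites, compounds given in 0.1% DMSO final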
Description: The screening assay for Wnt activity is described as follows.
Following incubation, 15 μl of BriteLite Plus luminescence reagent (Perkin Elmer) was added to each well of the 384-well assay plates. The plates were placed on an orbital shaker for 2 min and then luminescence was quantified using the Envision (Perkin Elmer) plate reader.

[6] = system: SW480 colon carcinoma cells; experiment: Cell viability assay (CellTiter-Glo); format: cell-based, human; settings: SW480 cells, CellTiter-Glo, four days incubation
[7] = system: α-smooth muscle actin (αSMA) positive LL29 cells; experiment: Inhibition of fibrotic process: αSMA in TGF-β1 treated primary human fibroblasts from IPF patients; format: cell-based; settings: Homo sapiens, Fibroblast, 96 h; Table 8; LL29 fibroblasts from IPF patients, TGF-β1 20 ng/mL, 4 days; dose-response 10 μM to 0.94 nM;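 also: controls were TGF-β1 stimulated wells with DMSO vehicle (positive) and cells given DMSO alone (negative), cultured in F12 medium with 1% fetal bovine serum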
TNFα = experiment: Secreted cytokines in lipopolysaccharide-stimulated BV-2 mouse microglial cells: TNFα; format: cell-based; settings: BV-2 cells, compounds overnight, LPS 250 ng/mL 5 h
Description: as §1, §2, §3

[8] = system: secreted β-amyloid 40 (Aβ40) peptide; experiment: Secreted β-amyloid 40 (Aβ40) peptide in APP overexpressing SH-SY5Y-APP cells; format: cell-based; settings: Homo sapiens, overnight (16-18 hours)
Description: Representative compounds were screened using the cell-based assay procedure for secreted β-amyloid 40 (Aβ40) peptide in an APP overexpressing cell line described below.
SH-SY5Y cells were infected with lentivirus to overexpress amyloid (A4) beta precursor protein (APP), hereafter referred to as the SH-SY5Y-APP cells.
SH-SY5Y cells were seeded onto 6-well plates at
The cell assay procedure start 18 h prior to treatment, as SH-SY5Y-APP cells were seeded onto 96-well plates at
At this time, designated wells were seeded with SH-SY5Y cells that were seeded and treated with puromycin at
Cells were exposed overnight (16-18 hours) in a 37° C. incubator before supernatant was harvested. […] The original plates with seeded cells were tested for cytotoxicity by measure of adenosine triphosphate (ATP) release by adding CellTiter-Glo® diluted 1:4 in distilled water (G7573, Promega) and transferring lysed cells to a completely black 96-well plate to be read with the Cytation3. Plates containing supernatant were spun down at 1200 g for 10 minutes to remove any cellular debris. Supernatant was then diluted 1:2 with a diluent from V-PLEX Aβ40 Peptide (6E10) Kit and directly tested for secreted Aβ40 peptide (K150SKE, Meso Scale Discovery).

KC-GRO = experiment: Secreted cytokines in lipopolysaccharide-stimulated BV-2 mouse microglial cells: KC-GRO; format: cell-based; settings: BV-2 cells, compounds overnight, LPS 250 ng/mL 5 h
Description: as §1, §2, §3

[9] = Homo sapiens, SH-SY5Y cells, overnight (16-18 h) exposure

Molecule | EC50 (recombinant GSK3β kinase) [nM] | EC50 (IL-6 [1]; Mus musculus) [nM] | EC50 [2, 9] [nM] | EC50 [3] [nM] | EC50 (IL-6 [4]; Homo sapiens, PBMC) [nM] | EC50 ([5]; Homo sapiens) [nM] | EC50 ([6]; Homo sapiens, 96 h) [nM] | EC50 [7] [nM] | EC50 (TNFα) [nM] | IC50 [8] [nM] | EC50 (KC-GRO) [nM] | inhibition at 10 µM (IL-6 [4]; Homo sapiens, PBMC, read-out: percent value in parentheses beside EC50 >10 μM) [%] | EC50 (IL-6 [1]) [nM] | EC50 ([2]; SH-SY5Y cells, overnight (16-18 h) exposure) [nM] | EC50 (IL-6 [4]) [nM] | EC50 [5] [nM] | EC50 [6] [nM] | EC50 ([2]; Homo sapiens, SH-SY5Y) [nM]
Cn1cnnc1-c1ccc2cnc(NC(=O)C3CCN(CCC(F)(F)F)CC3)cc2c1 [Compound 278, N-(6-(4-Methyl-4H-1,2,4-triazol-3-yl)isoquinolin-3-yl)-1-(3,3,3-trifluoropropyl)piperidine-4-carboxamide] | 7 | 217 | 76 | 3.2 | 3990 | 413 | 1230 | 211 | > 10000 |  |  |  |  |  |  |  |  | 
CN1CCC(C(=O)Nc2cc3cc(-c4cnn(C)c4)ccc3cn2)CC1 [Compound 73, 1-Methyl-N-(6-(1-methyl-1H-pyrazol-4-yl)isoquinolin-3-yl)piperidine-4-carboxamide] | 49 | 80 | 199 | 1.7 | 963 | 485 | 769 | 169 | 23 |  |  |  |  |  |  |  |  | 
Cn1cc(-c2ccc3cnc(NC(=O)C4CCN(CC(C)(F)F)CC4)cc3c2)cn1 [Compound 83, 1-(2,2-Difluoropropyl)-N-(6-(1-methyl-1H-pyrazol-4-yl)isoquinolin-3-yl) piperidine-4-carboxamide] | 34 | 6 | 432 | 1.2 | 2150 | 2900 | 6340 | 67 |  | > 10000 |  |  |  |  |  |  |  | 
Cc1ncc(-c2ccc3cnc(NC(=O)[C@H]4CC[C@H](N(C)C)CC4)cc3c2)o1 [Compound 1017, trans-4-(dimethylamino)-N-(6-(2-methyloxazol-5-yl)isoquinolin-3-yl)cyclohexane-1-carboxamide] | 76 | 24 | 320 | 3.1 | 655 | 621 | 659 | 97 | 29 |  | 22 |  |  |  |  |  |  | 
Cn1cc(-c2ccc3cnc(NC(=O)C4CCN(CCF)CC4)cc3c2)cn1 [Compound 81, 1-(2-Fluoroethyl)-N-(6-(1-methyl-1H-pyrazol-4-yl)isoquinolin-3-yl) piperidine-4-carboxamide] | 30 | 30 | 452 | 1.5 | 395 | 735 | 949 | 104 | > 10000 | 2300 |  |  |  |  |  |  |  | 
Cn1cncc1-c1ccc2cnc(NC(=O)C3CCN(CCC(F)(F)F)CC3)cc2c1 [Compound 262, N-(6-(1-Methyl-1H-imidazol-5-yl)isoquinolin-3-yl)-1-(3,3,3-trifluoropropyl) piperidine-4-carboxamide] | 24 | 1500 | 174 | 1.5 | 1090 | 1700 | 1390 | 43 | 3200 | 2200 |  |  |  |  |  |  |  | 
CN1CCC(C(=O)Nc2cc3cc(-c4nnc(N(C)C)o4)ccc3cn2)CC1 [Compound 1076, N-(6-(5-(dimethylamino)-1,3,4-oxadiazol-2-yl)isoquinolin-3-yl)-1-methylpiperidine-4-carboxamide] | 11 | 8 | 41 | 8.4 | > 10000 | 640 | 1580 |  | 1800 |  | 291 | 3 |  |  |  |  |  | 
1-(2-Hydroxy-2-methylpropyl)-N-(6-(1-methyl-1H-1,2,3-triazol-4-yl) isoquinolin-3-yl)piperidine-4-carboxamide [Compound 1070] | 16 |  |  | 7.6 |  |  |  |  |  |  |  |  | 14 | 91 | 6470 | 738 | 8390 | 
Cc1ncc(-c2ccc3cnc(NC(=O)[C@H]4CC[C@H](N5CCOCC5)CC4)cc3c2)o1 [Compound 1064, trans-N-(6-(2-methyloxazol-5-yl)isoquinolin-3-yl)-4-morpholinocyclohexane-1-carboxamide] | 126 | 6 | 109 | 6.7 | 3500 | 4120 | 4850 |  | 30 |  | 14 |  |  |  |  |  |  | 
CN1CCC(C(=O)Nc2cc3cc(-c4cnn(C)c4)c(F)cc3cn2)CC1 [Compound 966, N-(7-Fluoro-6-(1-methyl-1H-pyrazol-4-yl)isoquinolin-3-yl)-1-methylpiperidine-4-carboxamide] | 32 | 22 | 236 | 2 |  | 1590 | 259 | 14 | 60 |  | 71 |  |  |  |  |  |  | 
CN1CC2(CC(C(=O)Nc3cc4cc(-c5cnn(C)c5)ccc4cn3)C2)C1 [Compound 324, 2-Methyl-N-(6-(1-methyl-1H-pyrazol-4-yl)isoquinolin-3-yl)-2-azaspiro[3.3] heptane-6-carboxamide] | 30 | 20 | 180 | 2.1 | 321 | 145 | 266 | 68 | 33 |  |  |  |  |  |  |  |  | 
Cn1cc(-c2ccc3cnc(NC(=O)C4CCN(CCC(F)(F)F)CC4)cc3c2)cn1 [Compound 82, N-(6-(1-Methyl-1H-pyrazol-4-yl)isoquinolin-3-yl)-1-(3,3,3-trifluoropropyl) piperidine-4-carboxamide] | 22 |  | 315 | 0.9 | 1190 | 4950 | 2710 | 156 |  | 5100 |  |  |  |  |  |  |  | 
Cn1cc(-c2ccc3cnc(NC(=O)C4CCN(C5CC5)CC4)cc3c2)cn1 [Compound 76, 1-Cyclopropyl-N-(6-(1-methyl-1H-pyrazol-4-yl)isoquinolin-3-yl)piperidine-4-carboxamide] | 31 |  | 219 | 2.3 | 1130 | 705 | 1560 | 87 |  | 1200 |  |  |  |  |  |  |  | 
Cn1cc(-c2ccc3cnc(NC(=O)C4CCNCC4)cc3c2)cn1 [Compound 72, N-(6-(1-methyl-1H-pyrazol-4-yl)isoquinolin-3-yl)piperidine-4-carboxamide] | 64 |  | 757 | 2.5 | 1130 | 920 | 911 | 96 |  | 2100 |  |  |  |  |  |  |  | 
CC(C)CN1CCC(C(=O)Nc2cc3cc(-c4cn(C)nn4)ccc3cn2)CC1 [Compound 468] | 7 | 23 | 39 | 4.9 | 5780 | 363 | 2510 |  | 2100 |  |  |  |  |  |  |  |  | 
Cn1cc(-c2ccc3cnc(NC(=O)CN4CCOCC4)cc3c2)cn1 [Compound 338, N-(6-(1-Methyl-1H-pyrazol-4-yl)isoquinolin-3-yl)-2-morpholinoacetamide] | 67 | 144 | 1700 | 6.2 | 4460 | 7370 | 9330 | 643 | 724 |  |  |  |  |  |  |  |  | 
Cn1cncc1-c1ccc2cnc(NC(=O)C3C(C)(C)C3(C)C)cc2c1 [Compound 269, 2,2,3,3-Tetramethyl-N-[6-(3-methylimidazol-4-yl)-3-isoquinolyl]cyclopropanecarboxamide] | 1020 |  |  | 5 | 3390 | 3620 | 2330 | 396 |  | > 10000 |  |  |  |  |  |  |  | 4300
